For test [1], the target named is MAP/microtubule affinity-regulating kinase 3 (Homo sapiens) (UniProt P27448). Nature of the test: Inhibition of human MARK3 using KKKVSRSGLYRSPSMPENLNRPR as substrate at 1 uM in presence of 32P-ATP by Hotspot assay relative to control; values are per cent of control.
Test [2] concerns the target T1, Serine/threonine-protein kinase D2 (Homo sapiens) (UniProt Q9BZL6).
T1 sequence (whole entry): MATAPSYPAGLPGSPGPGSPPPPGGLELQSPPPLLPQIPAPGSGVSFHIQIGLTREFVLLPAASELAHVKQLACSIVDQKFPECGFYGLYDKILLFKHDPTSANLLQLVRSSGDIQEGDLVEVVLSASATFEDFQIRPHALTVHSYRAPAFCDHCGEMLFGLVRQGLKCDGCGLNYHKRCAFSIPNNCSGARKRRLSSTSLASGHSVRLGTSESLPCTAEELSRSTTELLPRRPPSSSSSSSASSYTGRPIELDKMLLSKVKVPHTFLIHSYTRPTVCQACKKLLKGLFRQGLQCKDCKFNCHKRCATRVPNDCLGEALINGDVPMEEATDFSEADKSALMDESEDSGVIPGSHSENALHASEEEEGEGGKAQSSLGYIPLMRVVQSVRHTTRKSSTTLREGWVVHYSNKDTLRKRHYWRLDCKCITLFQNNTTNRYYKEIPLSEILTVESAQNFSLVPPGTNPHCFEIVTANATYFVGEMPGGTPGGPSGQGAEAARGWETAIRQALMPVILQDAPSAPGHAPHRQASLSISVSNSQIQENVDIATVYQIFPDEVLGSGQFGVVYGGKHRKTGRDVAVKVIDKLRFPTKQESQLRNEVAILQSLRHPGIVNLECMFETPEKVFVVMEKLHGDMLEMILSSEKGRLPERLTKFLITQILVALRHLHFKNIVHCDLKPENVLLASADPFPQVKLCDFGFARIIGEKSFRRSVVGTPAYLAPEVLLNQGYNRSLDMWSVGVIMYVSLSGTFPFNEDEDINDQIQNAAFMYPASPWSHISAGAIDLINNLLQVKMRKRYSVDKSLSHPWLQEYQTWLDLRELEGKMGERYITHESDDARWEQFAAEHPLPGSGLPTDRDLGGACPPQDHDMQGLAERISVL
The experiment in a line: Residual activity of human PKD2/PRKD2 using KKLNRTLSVA as substrate at 1 uM in presence of 32P-ATP by Hotspot assay relative to control.

The target in test [3] is Serine/threonine-protein kinase PAK 4 (Homo sapiens) (UniProt O96013). Nature of the test: Inhibition of human PAK4 using RRRLSFAEPG as substrate at 1 uM in presence of 32P-ATP by Hotspot assay relative to control; values are per cent of control.
The target in test [4] is Dual specificity tyrosine-phosphorylation-regulated kinase 1A (Homo sapiens) (UniProt Q13627). Nature of the test: Residual activity of human DYRK1/DYRK1A using RRRFRPASPLRGPPK as substrate at 1 uM in presence of 32P-ATP by Hotspot assay relative to control.
Test [5] concerns the target T2, Activin receptor type-1 (Homo sapiens) (UniProt Q04771).
T2 sequence (whole entry): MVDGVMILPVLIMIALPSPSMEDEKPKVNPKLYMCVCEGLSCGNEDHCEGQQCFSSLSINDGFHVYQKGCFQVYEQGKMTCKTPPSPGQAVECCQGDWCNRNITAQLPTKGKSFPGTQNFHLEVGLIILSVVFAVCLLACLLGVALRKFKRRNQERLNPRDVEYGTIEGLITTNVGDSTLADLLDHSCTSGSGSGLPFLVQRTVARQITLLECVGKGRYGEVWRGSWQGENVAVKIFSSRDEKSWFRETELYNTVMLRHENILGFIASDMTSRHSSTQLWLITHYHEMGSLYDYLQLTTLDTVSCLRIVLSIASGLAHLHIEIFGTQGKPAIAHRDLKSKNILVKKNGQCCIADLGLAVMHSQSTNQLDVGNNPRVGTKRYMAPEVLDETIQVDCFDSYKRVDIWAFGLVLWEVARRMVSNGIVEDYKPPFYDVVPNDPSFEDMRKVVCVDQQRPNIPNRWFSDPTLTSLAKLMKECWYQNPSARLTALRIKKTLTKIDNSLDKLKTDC
The experiment in a line: Inhibition of human ALK2/ACVR1 using casein as substrate at 1 uM in presence of 32P-ATP by Hotspot assay relative to control; values are per cent of control.

For test [6], the target named is Serine/threonine-protein kinase N2 (Homo sapiens) (UniProt Q16513). Nature of the test: Inhibition of human PKN2/PRK2 using KKLNRTLSVA as substrate at 1 uM in presence of 32P-ATP by Hotspot assay relative to control; values are per cent of control.
Test [7] addresses T3, Mitogen-activated protein kinase 12 (Homo sapiens) (UniProt P53778).
T3 sequence (whole entry): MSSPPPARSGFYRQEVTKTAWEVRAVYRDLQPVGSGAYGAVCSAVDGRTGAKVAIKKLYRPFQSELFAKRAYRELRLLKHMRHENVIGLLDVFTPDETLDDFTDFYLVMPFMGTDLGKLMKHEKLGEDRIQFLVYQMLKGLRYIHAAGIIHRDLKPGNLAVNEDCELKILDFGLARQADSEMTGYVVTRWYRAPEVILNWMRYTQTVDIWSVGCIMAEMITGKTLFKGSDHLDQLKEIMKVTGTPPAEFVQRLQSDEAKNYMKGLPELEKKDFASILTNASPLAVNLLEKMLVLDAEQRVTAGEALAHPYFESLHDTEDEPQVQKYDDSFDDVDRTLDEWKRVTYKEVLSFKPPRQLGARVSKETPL
Nature of the test: Inhibition of human P38g using myelin basic protein as substrate at 1 uM in presence of 32P-ATP by Hotspot assay relative to control; values are per cent of control.

Test [8] has as its target Protein-tyrosine kinase 2-beta (Homo sapiens) (UniProt Q14289). The experiment in a line: Inhibition of human PYK2 using poly[Glu:Tyr] (4:1) as substrate at 1 uM in presence of 32P-ATP by Hotspot assay relative to control; values are per cent of control.
The target of test [9] is Ephrin type-A receptor 7 (Homo sapiens) (UniProt Q15375). Nature of the test: Inhibition of human EPHA7 using poly[Glu:Tyr] (4:1) as substrate at 1 uM in presence of 32P-ATP by Hotspot assay relative to control; values are per cent of control.
Test [10] concerns the target Protein kinase C theta type (Homo sapiens) (UniProt Q04759). The experiment in a line: Residual activity of human PKCtheta using ERMRPRKRQGSVRRRV as substrate at 1 uM in presence of 32P-ATP by Hotspot assay relative to control.

Serine/threonine-protein kinase N2 (Homo sapiens), sequence (Q16513 whole entry, looked up): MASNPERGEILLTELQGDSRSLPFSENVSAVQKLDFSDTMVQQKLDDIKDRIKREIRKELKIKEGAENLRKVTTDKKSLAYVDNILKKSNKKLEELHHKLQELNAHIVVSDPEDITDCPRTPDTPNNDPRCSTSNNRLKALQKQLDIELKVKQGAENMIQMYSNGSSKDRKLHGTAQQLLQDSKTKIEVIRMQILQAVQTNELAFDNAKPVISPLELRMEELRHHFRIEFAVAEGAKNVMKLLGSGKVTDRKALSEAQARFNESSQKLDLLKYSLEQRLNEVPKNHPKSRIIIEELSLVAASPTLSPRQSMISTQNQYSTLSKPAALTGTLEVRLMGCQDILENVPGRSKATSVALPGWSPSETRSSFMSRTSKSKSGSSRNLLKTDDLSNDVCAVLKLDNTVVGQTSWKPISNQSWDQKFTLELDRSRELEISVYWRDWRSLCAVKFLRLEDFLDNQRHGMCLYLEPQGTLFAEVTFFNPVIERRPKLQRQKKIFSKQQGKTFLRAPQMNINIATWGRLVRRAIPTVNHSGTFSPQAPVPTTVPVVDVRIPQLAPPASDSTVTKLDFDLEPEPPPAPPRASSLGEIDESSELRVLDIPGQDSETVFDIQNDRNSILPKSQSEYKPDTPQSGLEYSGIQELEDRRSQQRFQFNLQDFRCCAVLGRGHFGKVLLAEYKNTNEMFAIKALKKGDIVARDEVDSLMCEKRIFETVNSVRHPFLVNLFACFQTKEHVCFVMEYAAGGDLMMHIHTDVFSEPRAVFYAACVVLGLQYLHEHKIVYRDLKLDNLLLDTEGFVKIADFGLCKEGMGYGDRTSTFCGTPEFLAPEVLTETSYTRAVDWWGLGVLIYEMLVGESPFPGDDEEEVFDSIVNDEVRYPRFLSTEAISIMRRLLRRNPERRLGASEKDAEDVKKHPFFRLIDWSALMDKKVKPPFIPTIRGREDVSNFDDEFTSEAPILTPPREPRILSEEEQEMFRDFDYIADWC
Serine/threonine-protein kinase PAK 4 (Homo sapiens), sequence (O96013 whole entry, looked up): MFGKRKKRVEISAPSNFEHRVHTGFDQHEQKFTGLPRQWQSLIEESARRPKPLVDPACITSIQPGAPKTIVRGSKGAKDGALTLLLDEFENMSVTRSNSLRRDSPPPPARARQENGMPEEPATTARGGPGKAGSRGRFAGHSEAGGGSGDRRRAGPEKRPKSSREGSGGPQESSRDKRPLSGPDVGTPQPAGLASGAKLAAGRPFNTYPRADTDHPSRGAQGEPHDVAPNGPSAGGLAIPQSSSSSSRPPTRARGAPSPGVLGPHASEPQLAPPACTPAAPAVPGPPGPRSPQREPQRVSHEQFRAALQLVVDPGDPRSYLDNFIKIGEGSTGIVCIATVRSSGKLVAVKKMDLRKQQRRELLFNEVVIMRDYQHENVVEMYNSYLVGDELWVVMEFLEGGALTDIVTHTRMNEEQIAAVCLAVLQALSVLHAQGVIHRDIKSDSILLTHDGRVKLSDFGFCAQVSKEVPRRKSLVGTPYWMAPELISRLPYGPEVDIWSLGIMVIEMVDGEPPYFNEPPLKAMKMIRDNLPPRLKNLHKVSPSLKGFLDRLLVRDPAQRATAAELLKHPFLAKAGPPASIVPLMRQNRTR
Ephrin type-A receptor 7 (Homo sapiens), sequence (Q15375 28-998 limits assumed): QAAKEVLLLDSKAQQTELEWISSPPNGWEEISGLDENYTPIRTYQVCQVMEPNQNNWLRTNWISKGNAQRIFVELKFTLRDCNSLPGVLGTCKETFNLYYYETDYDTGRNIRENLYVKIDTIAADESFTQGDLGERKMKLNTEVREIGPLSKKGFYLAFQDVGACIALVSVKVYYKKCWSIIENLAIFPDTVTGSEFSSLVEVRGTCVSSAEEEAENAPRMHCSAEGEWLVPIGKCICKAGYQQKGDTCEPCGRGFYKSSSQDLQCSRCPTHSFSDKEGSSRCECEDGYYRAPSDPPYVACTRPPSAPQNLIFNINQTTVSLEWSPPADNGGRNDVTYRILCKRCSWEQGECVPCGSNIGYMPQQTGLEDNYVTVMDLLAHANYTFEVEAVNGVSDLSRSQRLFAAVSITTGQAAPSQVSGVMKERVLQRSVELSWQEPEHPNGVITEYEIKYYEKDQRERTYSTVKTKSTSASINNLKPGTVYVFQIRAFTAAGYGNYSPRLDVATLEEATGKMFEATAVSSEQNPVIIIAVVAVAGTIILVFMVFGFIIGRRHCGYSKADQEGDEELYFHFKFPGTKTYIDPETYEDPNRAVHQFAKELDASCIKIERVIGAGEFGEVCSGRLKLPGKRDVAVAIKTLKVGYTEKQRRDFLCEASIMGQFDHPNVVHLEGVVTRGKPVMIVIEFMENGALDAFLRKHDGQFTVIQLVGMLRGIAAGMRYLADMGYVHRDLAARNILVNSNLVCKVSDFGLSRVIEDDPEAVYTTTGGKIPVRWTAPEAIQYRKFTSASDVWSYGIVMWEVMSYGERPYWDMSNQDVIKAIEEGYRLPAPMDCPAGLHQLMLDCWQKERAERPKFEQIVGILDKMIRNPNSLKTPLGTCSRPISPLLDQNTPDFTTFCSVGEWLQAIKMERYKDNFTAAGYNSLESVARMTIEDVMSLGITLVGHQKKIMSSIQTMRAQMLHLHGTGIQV
MAP/microtubule affinity-regulating kinase 3 (Homo sapiens), sequence (P27448 whole entry, looked up): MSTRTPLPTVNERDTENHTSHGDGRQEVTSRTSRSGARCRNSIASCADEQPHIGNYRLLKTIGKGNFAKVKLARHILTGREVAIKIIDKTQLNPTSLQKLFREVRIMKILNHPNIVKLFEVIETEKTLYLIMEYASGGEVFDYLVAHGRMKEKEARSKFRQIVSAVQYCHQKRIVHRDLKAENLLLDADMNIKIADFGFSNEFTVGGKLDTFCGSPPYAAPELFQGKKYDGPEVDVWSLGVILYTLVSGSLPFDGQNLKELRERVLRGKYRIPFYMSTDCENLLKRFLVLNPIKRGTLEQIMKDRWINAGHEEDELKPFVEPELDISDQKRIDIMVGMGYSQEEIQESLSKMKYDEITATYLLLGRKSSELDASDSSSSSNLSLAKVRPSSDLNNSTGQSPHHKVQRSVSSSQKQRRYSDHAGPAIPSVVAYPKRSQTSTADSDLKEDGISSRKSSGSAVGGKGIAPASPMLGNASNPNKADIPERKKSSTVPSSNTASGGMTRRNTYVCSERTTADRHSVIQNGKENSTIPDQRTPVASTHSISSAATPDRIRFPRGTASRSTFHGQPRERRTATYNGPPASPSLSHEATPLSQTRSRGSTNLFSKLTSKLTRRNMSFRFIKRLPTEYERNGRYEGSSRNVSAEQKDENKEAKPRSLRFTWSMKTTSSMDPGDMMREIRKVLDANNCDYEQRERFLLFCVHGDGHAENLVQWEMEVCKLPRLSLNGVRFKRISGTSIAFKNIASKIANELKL
Protein kinase C theta type (Homo sapiens), sequence (Q04759 whole entry, looked up): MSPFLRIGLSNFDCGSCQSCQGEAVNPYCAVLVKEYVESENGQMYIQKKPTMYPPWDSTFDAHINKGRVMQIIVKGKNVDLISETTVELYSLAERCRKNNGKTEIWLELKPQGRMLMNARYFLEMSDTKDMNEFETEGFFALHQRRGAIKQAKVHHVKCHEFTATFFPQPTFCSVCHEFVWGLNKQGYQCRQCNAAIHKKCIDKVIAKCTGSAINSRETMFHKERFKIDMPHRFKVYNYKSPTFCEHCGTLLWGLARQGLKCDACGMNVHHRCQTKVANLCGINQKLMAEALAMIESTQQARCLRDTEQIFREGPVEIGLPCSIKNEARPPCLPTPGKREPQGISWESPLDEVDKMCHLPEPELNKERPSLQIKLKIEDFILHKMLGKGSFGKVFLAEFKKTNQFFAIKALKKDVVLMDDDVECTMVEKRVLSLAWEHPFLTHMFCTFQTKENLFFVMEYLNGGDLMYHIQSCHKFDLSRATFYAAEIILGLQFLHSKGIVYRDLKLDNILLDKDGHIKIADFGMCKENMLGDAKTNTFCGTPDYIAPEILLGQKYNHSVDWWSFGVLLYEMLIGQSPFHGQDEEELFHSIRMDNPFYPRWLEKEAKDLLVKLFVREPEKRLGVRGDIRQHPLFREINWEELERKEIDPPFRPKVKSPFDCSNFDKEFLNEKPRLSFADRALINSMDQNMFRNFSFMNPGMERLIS
Protein-tyrosine kinase 2-beta (Homo sapiens), sequence (Q14289 whole entry, looked up): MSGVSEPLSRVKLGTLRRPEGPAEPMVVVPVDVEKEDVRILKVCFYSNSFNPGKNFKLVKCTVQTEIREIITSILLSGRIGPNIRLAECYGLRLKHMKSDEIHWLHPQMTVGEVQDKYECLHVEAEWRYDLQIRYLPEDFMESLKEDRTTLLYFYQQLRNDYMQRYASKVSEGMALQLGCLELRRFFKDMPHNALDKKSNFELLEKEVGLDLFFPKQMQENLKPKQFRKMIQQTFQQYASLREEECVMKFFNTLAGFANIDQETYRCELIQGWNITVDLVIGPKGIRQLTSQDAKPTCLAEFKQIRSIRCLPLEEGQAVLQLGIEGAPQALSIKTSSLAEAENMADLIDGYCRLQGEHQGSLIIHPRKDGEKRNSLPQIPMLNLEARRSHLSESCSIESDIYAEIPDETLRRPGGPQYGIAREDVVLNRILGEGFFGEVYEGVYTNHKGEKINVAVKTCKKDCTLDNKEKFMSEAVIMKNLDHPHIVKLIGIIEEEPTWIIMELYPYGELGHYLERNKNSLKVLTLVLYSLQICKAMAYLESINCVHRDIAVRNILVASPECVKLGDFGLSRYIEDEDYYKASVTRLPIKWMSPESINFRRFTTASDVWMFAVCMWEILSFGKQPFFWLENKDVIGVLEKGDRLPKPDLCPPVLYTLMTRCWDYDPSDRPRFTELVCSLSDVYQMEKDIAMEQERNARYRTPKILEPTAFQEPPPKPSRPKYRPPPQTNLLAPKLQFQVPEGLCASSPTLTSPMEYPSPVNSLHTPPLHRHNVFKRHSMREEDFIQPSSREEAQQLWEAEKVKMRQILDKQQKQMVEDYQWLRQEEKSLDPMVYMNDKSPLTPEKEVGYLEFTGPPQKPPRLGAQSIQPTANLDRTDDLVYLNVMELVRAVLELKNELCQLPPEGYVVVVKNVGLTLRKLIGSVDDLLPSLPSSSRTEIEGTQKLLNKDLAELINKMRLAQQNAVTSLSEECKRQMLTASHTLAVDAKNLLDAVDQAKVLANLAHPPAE

As to `Cc1cc(-c2cnc(N)c3c(-c4ccc5scnc5c4)csc23)n(C)n1`, the residual activity in [1] was determined as 98.2%; in test [2] it was 39.4%; in test [3], 100%; in test [4] it was 99.6%; in test [5], 101%; in [6], 89.8%. The residual activity in test [7] amounted to 105%; in test [8] it was 105%; in [9], 101%; in test [10], 98.3%.

Turning to `CC(C)S(=O)(=O)c1ccc2nccc(Nc3ccc4scnc4c3)c2c1`, the residual activity in test [1] is 106%; in test [2], 101%; in test [3], 99%; in [4], 98.8%; in test [5], 102%; in test [6], 108%. Besides, the residual activity in [7] turned out to be 98.5%; in [8] it was 95.5%; in test [9], 90.8%; in test [10], 92.8%.

As to `CNC(=O)c1ccc2c(c1)ncn2-c1ccc(CC(=O)OC(C)(C)C)cc1`, the residual activity worked out at 108% in [1]; 99% in test [2]; 99.6% in test [3]; 99.4% in [4]; 80.4% in test [5]; 93.9% in [6]. Besides, the residual activity stood at 95.7% in [7], 96.4% in [8], 87.8% in test [9] and 104% in test [10].

The values are drawn from ChEMBL document CHEMBL5649166, “RIP3 induces apoptosis independent of pronecrotic kinase activity” (Mol Cell, 2014).
